The source of these data is patent US20020022052A1, “Transdermal delivery system” (priority 2000, published 2002).

The conditions of data set [1]: bovine. As to the method:
All final tests were carried out with HPLC analysis.

The conditions of data set [2]: ascorbic acid content above 14% by weight, water based; cited from earlier work.
Data set [3] in a line: Skin tolerability trials of ascorbic acid admixtures. Conditions: water free carriers, ascorbic acid levels as high as 35%. The text has this: In addition, acidity is a function of the ionic dissociation of a material in solution. In most circumstances water is the primary dissociation medium and so solutions free of water generally have lower acidity. […] While it is impossible to totally exclude water, as there are minute traces in the ingredients utilized as carriers, acidity is kept to a minimum in what are essentially water free admixtures.

Data set [4] can be described thus: Maximum achieved massage induced skin load (400 g vibrator, 10 minutes). The settings on record: particle size 1 micron ± 0.25 um.
Text: To counter this problem, Franz Diffusion Cells using the widely accepted Perfused Bovine Udder Skin model were fitted with vibrators which held a soft plastic head against the test skin in a massaging action. The vibrator was allowed to move randomly over the test sample using its own mass to provide the pressure. The total weight of a vibrator and head was 180 grams and the massage heads were 1.2 cm in diameter. The vibrators provided a massage pressure well below that which would be applied by a person finger massaging cream into the skin.
Testing was done by preparing sample creams as discussed below. Each sample was weighed and spread on the test skin. At this point the sample was subject to five minutes of the massage action described and then the remaining cream was removed and skin surface wiped dry. The weight of the absorbed amount was determined by weighing the removed material. The cell was not capped, the skin being left exposed to the air.
Tests were carried out to determine the maximum of both admixture and dry powder that could be induced into the stratum corneum. The vibrator weight was increased to 400 grams and vibration time to 10 minutes. Zinc gluconate (being of particular interest) was used as the active for these tests.

As for `O=C1O[C@H]([C@@H](O)CO)C(O)=C1O` [ascorbic acid], the “particle size at which absorption began to be demonstrated” value in data set [1] was “below 7 microns”. In addition, in data set [2], the skin reactions entry was “burning, stinging and other skin reactions”. Also, in data set [3], the “subjective discomfort compared with 12% water based admixture” value is “less discomfort” and the tolerability result is on record as “well tolerated”.
zinc gluconate: the Maximum loading in data set [4] (carrier Eutanol G) is given as 1.2 micrograms/cm^2; in data set [4] (carrier Nil (dry powder)) it was 0.6 micrograms/cm^2.
